Among the data in PubChem BioAssay (NCI) are TGI and GI50 values, retold here.

Where “and” joins values, the source holds several entries; their conditions need not be identical. Equal values may be shown once.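 Compound exposure: 48 hours, 5 concentrations, 96-well plates. At the GI50, growth is halved. TGI: concentration producing complete growth inhibition.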

Some test systems named below: HCT-116 colon; U251 CNS; OVCAR-8 ovarian; HOP-62 NSCLC; MOLT-4 leukemia; HOP-92 NSCLC; HCT-15 colon; SF-268 CNS; HCC-2998 colon; SK-MEL-5 melanoma.
Test in all cases: NCI anticancer screen, dose series, 48 h

As for `COc1cc([C@H]2c3cc4c(cc3[C@H](NCc3ccc(F)cc3)C3COC(=O)[C@H]32)OCO4)cc(OC)c1O` (stereo partly specified), the TGI with HCT-116 colon amounted to 23.1 µM; with U251 CNS it was 4.35 µM; in the test on OVCAR-8 ovarian it was 35.1 µM; in the test with HOP-62 NSCLC, 3.82 µM; with MOLT-4 leukemia it was 6.42 µM; in the test with HOP-92 NSCLC it was 49.5 µM. Also, the TGI in the test on HCT-15 colon is 16.2 µM; in the test on SF-268 CNS, above 100 µM; in the test on HCC-2998 colon, 23.8 µM.

As for `Cc1cc2nc3c(C(OC4OC(CO)C(O)C(O)C4O)C(O)CO)nn(-c4ccc(F)cc4)c3nc2cc1C` (stereo unspecified), the TGI with HCT-116 colon, in the test with U251 CNS, in the test on OVCAR-8 ovarian, in the test on HOP-62 NSCLC, with MOLT-4 leukemia and with HCT-15 colon was above 100 µM throughout. Moreover, the TGI in the test with SF-268 CNS and with HCC-2998 colon was above 100 µM in each case.

In the case of `CC(C)(C)OC(=O)CC(S(=O)(=O)c1ccccc1)S(=O)(=O)c1ccccc1`, the GI50 in the test on HCT-116 colon was 1460 nM; with U251 CNS it was 17.2 µM; in the test on OVCAR-8 ovarian it was 8.32 µM; with HOP-62 NSCLC, 19.1 µM; in the test on SK-MEL-5 melanoma it was 15.5 µM; in the test with MOLT-4 leukemia it was 2420 nM. Also, the GI50 in the test with HCT-15 colon is 1870 nM; in the test on SF-268 CNS it was 16.5 µM; with HCC-2998 colon, 16 µM. The TGI is 2.78 µM in the test on HCT-116 colon; 35.9 µM with U251 CNS; 23.3 µM with OVCAR-8 ovarian; 35.4 µM with HOP-62 NSCLC; 28.8 µM in the test on SK-MEL-5 melanoma; 5.57 µM with MOLT-4 leukemia. For the same compound, the results for the TGI in the test with HCT-15 colon, in the test with SF-268 CNS and with HCC-2998 colon were 3.71 µM, 34.4 µM and 29.6 µM, respectively.

As for `COc1ccc(/C(C#N)=C2/O/C(=N/N)C(c3ccc(OC)c(OC)c3)C2=O)cc1OC` (stereo unspecified), the TGI in the test on HCT-116 colon, with U251 CNS, with SK-MEL-5 melanoma, with MOLT-4 leukemia, in the test on HOP-92 NSCLC and in the test on HCT-15 colon was above 100 µM throughout. This compound also showed a TGI with SF-268 CNS above 100 µM.

In the case of `NC(=O)C1C(=O)Oc2cccnc21` (stereo unspecified), the TGI in the test with HCT-116 colon, in the test on U251 CNS, in the test with OVCAR-8 ovarian, with HOP-62 NSCLC, with SK-MEL-5 melanoma and in the test with MOLT-4 leukemia was above 100 µM each time. This compound displayed a TGI in the test on HCT-15 colon above 100 µM.

As for `COc1ccc(C2C(C(=O)O)=C(COC(C)=O)Oc3cc4c(cc32)OCO4)c(OC)c1` (stereo unspecified), the TGI in the test on HCT-116 colon, with U251 CNS, with OVCAR-8 ovarian, in the test with HOP-62 NSCLC, in the test on SK-MEL-5 melanoma and with MOLT-4 leukemia was above 100 µM each time. For the same compound, the TGI in the test on HOP-92 NSCLC and with HCT-15 colon was above 100 µM in each case.

As for `Cc1c(C(=O)/C=C/c2ccc3c(c2)OCO3)[n+](=O)c2ccccc2n1[O-]`, the TGI in the test on HCT-116 colon is 75.1 µM; in the test on U251 CNS, above 100 µM; in the test with OVCAR-8 ovarian it was 62.9 µM; with HOP-62 NSCLC it was above 100 µM; in the test with MOLT-4 leukemia it was 73.9 µM; in the test with HOP-92 NSCLC it was 69.7 µM. The TGI was above 100 µM with SF-268 CNS and 57.5 µM in the test on HCC-2998 colon.

With `O=C(Cn1ccnc1[N+](=O)[O-])NCc1ccc(F)cc1`, the TGI in the test on U251 CNS, with OVCAR-8 ovarian, in the test with HOP-62 NSCLC, in the test on SK-MEL-5 melanoma, in the test on MOLT-4 leukemia and in the test on HOP-92 NSCLC was above 100 µM in each case. Further, the TGI with HCT-15 colon and with SF-268 CNS was above 100 µM each time.

Take `Nc1c([N+](=O)[O-])ncn1C1OC(CO)C(O)C1O` (stereo unspecified): the GI50 with HCT-116 colon is above 100000 nM; in the test with U251 CNS, above 100 µM; with OVCAR-8 ovarian it was above 100 µM; in the test on HOP-62 NSCLC, above 100 µM; in the test with SK-MEL-5 melanoma, above 100 µM; in the test on MOLT-4 leukemia, above 100000 nM. Also, the GI50 was above 100000 nM with HCT-15 colon, above 100 µM with SF-268 CNS and above 100 µM in the test on HCC-2998 colon. The TGI in the test on HCT-116 colon, in the test with U251 CNS, with OVCAR-8 ovarian, in the test with HOP-62 NSCLC, in the test on SK-MEL-5 melanoma and in the test with MOLT-4 leukemia was above 100 µM in each case. Moreover, the TGI in the test with HCT-15 colon, in the test with SF-268 CNS and with HCC-2998 colon was above 100 µM each time.

On to `CC(=O)O[C@H]1C(=O)[C@@]2(C)C([C@H](OC(=O)c3ccccc3)[C@]3(O)C[C@H](OC(=O)[C@H](O)[C@@H](NC(=O)c4ccc(Cl)cc4)c4ccccc4)C(C)=C1C3(C)C)C1(OC(C)=O)CO[C@@H]1C[C@@H]2O` (stereo partly specified), for which the TGI with HCT-116 colon was 3.31 µM and 1.85 µM; with HOP-62 NSCLC, 25 µM and 25.2 µM; in the test with SK-MEL-5 melanoma it was 13.5 µM; in the test with MOLT-4 leukemia, 25 µM and 4.77 µM; in the test on HCT-15 colon, 25 µM and 4.92 µM; in the test on SF-268 CNS, 25 µM and 82.5 µM. Also, the TGI with HCC-2998 colon was 0.608 µM. For the same compound, the GI50 was 0.261 µM in the test on HOP-62 NSCLC and 200 nM in the test on HCT-15 colon.

As for `Cc1cccc(NC(=O)CSc2nnc(-c3ccc(N=Cc4ccc(Cl)cc4)cc3)o2)c1`, the TGI in the test with HCT-116 colon, with U251 CNS, in the test on OVCAR-8 ovarian, in the test with HOP-62 NSCLC, in the test on SK-MEL-5 melanoma and in the test with MOLT-4 leukemia was above 100 µM each time. Also, the TGI with HCT-15 colon and with SF-268 CNS was above 100 µM in each case.

For the compound `CC(=O)Nc1ccc2c(c1)[nH]c(=O)c1cc(Cl)ccc12`, the TGI in the test with HCT-116 colon was above 100 µM; in the test on U251 CNS it was above 100 µM; with OVCAR-8 ovarian it was 64.9 µM; with HOP-62 NSCLC, above 100 µM; in the test on SK-MEL-5 melanoma, above 100 µM; in the test with MOLT-4 leukemia it was 8.53 µM. For the same compound, the TGI in the test on HCT-15 colon, in the test on SF-268 CNS and in the test with HCC-2998 colon was above 100 µM throughout.

In the case of `CCOC(=O)c1cnc2c(ccc3ncccc32)c1OCC`, the TGI in the test with HCT-116 colon, in the test with U251 CNS, with OVCAR-8 ovarian, in the test with HOP-62 NSCLC, in the test with SK-MEL-5 melanoma and in the test with MOLT-4 leukemia was above 100 µM each time. For the same compound, the TGI in the test on HCT-15 colon, in the test on SF-268 CNS and with HCC-2998 colon was above 100 µM throughout.
